Drawing on US20240190874A1, “SMALL MOLECULE DEGRADERS OF ANDROGEN RECEPTOR” (THE REGENTS OF THE UNIVERSITY OF MICHIGAN, priority 2021, published 2024), this text covers IC50 and DC50 for 13 compounds.

Common to all, as to assay type: cell-based
The subject of one assay is VCaP cells. The experiment in a line: Cellular potency (IC50) in VCaP cells. As to conditions: Homo sapiens, VCaP. Here is the method: (§1) Biological Assays. LNCaP and VCaP cells used were purchased from American Type Culture Collection (ATCC). LNCaP were grown in RPMI 1640 (Invitrogen) and VCaP cells were grown in DMEM with Glutamax (Invitrogen). All of the cells were supplemented with 10% fetal bovine serum (Invitrogen) at 37° C. in a humidified 5% CO2 incubator.

The target in the next assay is T1, AR (Homo sapiens, UniProt P10275).
T1 construct: Degradation of AR; Cellular potency; host or cells: VCaP cells
T1 sequence (P10275 1-920): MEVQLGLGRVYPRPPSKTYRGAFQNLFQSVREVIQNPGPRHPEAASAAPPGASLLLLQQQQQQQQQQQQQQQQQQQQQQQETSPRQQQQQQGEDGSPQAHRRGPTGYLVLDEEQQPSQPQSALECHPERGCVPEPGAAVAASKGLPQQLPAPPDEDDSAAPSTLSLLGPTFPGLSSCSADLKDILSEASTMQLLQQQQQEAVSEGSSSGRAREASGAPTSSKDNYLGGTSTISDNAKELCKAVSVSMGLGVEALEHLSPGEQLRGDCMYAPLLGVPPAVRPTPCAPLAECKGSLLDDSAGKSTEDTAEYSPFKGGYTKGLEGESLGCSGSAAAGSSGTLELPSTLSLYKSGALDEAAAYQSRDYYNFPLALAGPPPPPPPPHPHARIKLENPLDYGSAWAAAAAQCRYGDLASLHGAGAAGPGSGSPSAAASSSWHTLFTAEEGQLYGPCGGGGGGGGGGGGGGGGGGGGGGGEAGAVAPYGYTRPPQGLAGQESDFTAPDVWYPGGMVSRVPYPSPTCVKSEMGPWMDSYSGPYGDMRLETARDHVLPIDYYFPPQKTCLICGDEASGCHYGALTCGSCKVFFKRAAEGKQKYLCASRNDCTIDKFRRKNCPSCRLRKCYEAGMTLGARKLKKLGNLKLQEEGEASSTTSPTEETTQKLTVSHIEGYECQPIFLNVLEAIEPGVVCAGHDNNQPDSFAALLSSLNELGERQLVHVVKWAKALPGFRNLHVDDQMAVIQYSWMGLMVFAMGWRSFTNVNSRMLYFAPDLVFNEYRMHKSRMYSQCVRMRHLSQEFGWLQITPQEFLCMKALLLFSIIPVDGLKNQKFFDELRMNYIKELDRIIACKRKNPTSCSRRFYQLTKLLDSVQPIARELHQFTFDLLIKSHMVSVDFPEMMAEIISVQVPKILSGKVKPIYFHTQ
The experiment in a line: Degradation of AR in VCaP cells. As to conditions: VCaP cells. Here is the method:
as §1

The next assay relates to LNCaP cells. The experiment in a line: Cellular potency (IC50) in LNCaP cells. As to conditions: Homo sapiens, LNCaP. Here is the method: as §1

Structures are written as SMILES.

For orientation: IC50 means the concentration that gives 50% inhibition. Read a low IC50 as greater potency. A word on the DC50: it is the midpoint of the concentration-degradation curve. High values mean a less potent degrader, low ones a more potent degrader. `C[C@H]1CC2(CCN(c3ccc(CN4CCC(C5CCN(c6ccc7c(c6)C(=O)N(C6CCC(=O)NC6=O)C7=O)CC5)CC4)nc3)CC2)CN1c1ccc(C#N)c(Cl)c1` (stereo partly drawn) [compound 181]: the figures for the IC50 with VCaP cells and in the assay on LNCaP cells were less than 100 nM and less than 10 nM, respectively. This compound showed a DC50 on AR of less than 1 nM.
Regarding `C[C@H]1CC2(CCN(c3ccc(CN4CCN(C5CCN(c6ccc7c(c6)C(=O)N(C6CCC(=O)NC6=O)C7=O)CC5)CC4)nc3)CC2)CN1c1ccc(C#N)c(Cl)c1` (stereo partly drawn) [compound 182], the IC50 with VCaP cells is less than 100 nM; in the assay with LNCaP cells, less than 10 nM. The DC50 at AR is less than 1 nM.
Regarding `C[C@H]1CC2(CCN(c3ncc(CN4CCN(C5CN(c6ccc7c(c6)C(=O)N(C6CCC(=O)NC6=O)C7=O)C5)CC4)cn3)CC2)CN1c1ccc(C#N)c(Cl)c1` (stereo partly drawn) [compound 183], the IC50 with VCaP cells and with LNCaP cells was less than 100 nM each time. The DC50 at AR is less than 1 nM.
For the compound `C[C@H]1CC2(CCN(c3cnc(CN4CCN(C5CN(c6ccc7c(c6)C(=O)N(C6CCC(=O)NC6=O)C7=O)C5)CC4)cn3)CC2)CN1c1ccc(C#N)c(Cl)c1` (stereo partly drawn) [compound 185], the IC50 with VCaP cells and with LNCaP cells was less than 100 nM throughout. Moreover, the DC50 at AR is less than 1 nM.
`C[C@H]1CC2(CCN(c3ccc(C(=O)N4CCC(N5CCOc6cc7c(cc6C5)C(=O)N(C5CCC(=O)NC5=O)C7=O)CC4)cc3)CC2)CN1c1ccc(C#N)c(Cl)c1` (stereo partly drawn) [compound 194]: the IC50 is less than 100 nM in the assay with VCaP cells and less than 10 nM in the assay with LNCaP cells. This compound returned a DC50 at AR of less than 10 nM.
Regarding `C[C@H]1CC2(CCN(c3ccc(C(=O)N4CCC(CN5CCOc6cc7c(cc6C5)C(=O)N(C5CCC(=O)NC5=O)C7=O)CC4)cc3)CC2)CN1c1ccc(C#N)c(Cl)c1` (stereo partly drawn) [compound 195], the IC50 with VCaP cells was less than 100 nM; in the assay on LNCaP cells, less than 10 nM. Besides, the DC50 at AR is less than 10 nM.
Turning to `C[C@H]1CC2(CCN(c3ccc(CC4CCN(C5CN(c6ccc7c(c6)C(=O)N(C6CCC(=O)NC6=O)C7=O)C5)CC4)cn3)CC2)CN1c1ccc(C#N)c(Cl)c1` (stereo partly drawn) [compound 196], the concentration for half-maximal inhibition (IC50) in the assay on VCaP cells was less than 100 nM; in the assay on LNCaP cells it was less than 10 nM. The compound further yielded a DC50 at AR of less than 1 nM.
In the case of `C[C@H]1CC2(CCN(c3ccc(CC4CCN(C5CN(c6ccc7c(c6)C(=O)N(C6CCC(=O)NC6=O)C7=O)C5)CC4)nc3)CC2)CN1c1ccc(C#N)c(Cl)c1` (stereo partly drawn) [compound 197], the IC50 in the assay on VCaP cells and in the assay with LNCaP cells was less than 10 nM each time. This compound also yielded a DC50 on AR of less than 1 nM.
On to `C[C@H]1CC2(CCN(c3ccc(CC4CCN(C5CN(c6ccc7c(c6)C(=O)N(C6CCC(=O)NC6=O)C7=O)C5)CC4)nn3)CC2)CN1c1ccc(C#N)c(Cl)c1` (stereo partly drawn) [compound 198], for which the IC50 in the assay on VCaP cells and with LNCaP cells was less than 10 nM throughout. This compound displayed a DC50 on AR of less than 10 nM.
For `C[C@H]1CC2(CCN(c3ccc(CN4CCC(N5CCN(c6ccc7c(c6)C(=O)N(C6CCC(=O)NC6=O)C7=O)CC5)CC4)nn3)CC2)CN1c1ccc(C#N)c(Cl)c1` (stereo partly drawn) [compound 202], the IC50 in the assay with VCaP cells and with LNCaP cells was less than 10 nM in each case. Besides, the DC50 at AR was less than 1 nM.
Take `C[C@H]1CC2(CCN(c3ccc(CN4CCC(N5CCN(c6cc7c(cc6F)C(=O)N(C6CCC(=O)NC6=O)C7=O)CC5)CC4)nn3)CC2)CN1c1ccc(C#N)c(Cl)c1` (stereo partly drawn) [compound 203]: the IC50 with VCaP cells and in the assay on LNCaP cells was less than 10 nM each time. On AR, this compound displayed a DC50 of less than 1 nM.
Take `C[C@H]1CC2(CCN(c3ccc(CN4CC(N5CCN(c6ccc7c(c6)C(=O)N(C6CCC(=O)NC6=O)C7=O)CC5)C4)cn3)CC2)CN1c1ccc(C#N)c(Cl)c1` (stereo partly drawn) [compound 204]: the IC50 with VCaP cells and in the assay with LNCaP cells was less than 10 nM in each case. The same compound came in with a DC50 at AR of less than 1 nM.
`C[C@H]1CC2(CCN(c3ccc(CN4CC(N5CCN(c6cc7c(cc6F)C(=O)N(C6CCC(=O)NC6=O)C7=O)CC5)C4)cn3)CC2)CN1c1ccc(C#N)c(Cl)c1` (stereo partly drawn) [compound 205]: the IC50 in the assay on VCaP cells and in the assay on LNCaP cells was less than 10 nM throughout. This compound also had a DC50 at AR of less than 1 nM.
